Data as given in patent publication US20220204918A1, “CELL CULTURE MEDIA COMPRISING KETO ACIDS” (MERCK PATENT GMBH, priority 2019, published 2022).
Values after ≈ are worked out from the molar mass of the structure shown. Structures can show the parent of a compound that is named as a salt.

Columns and labels:
[1] = Solubility in water at 25° C. (saturated solution, residual mass after infrared drying); type: physicochemical; conditions: for Solubility 25° C. in g/kg (corresponding keto acid) / Solubility (amino acid) / maximum solubilities obtained in water: water; for Solubility 25° C. in g/kg (corresponding keto acid) / Solubility (amino acid): 25° C.; for maximum solubilities obtained in water: separate experiments
Experimental: After sedimentation, the solution was dried using infrared (120° C., 120 min) and the residual mass was determined in g/kg.

physchem = conditions: for solubility at 10 min: 25 °C, pH 7, aqueous with cosolvent or surfactant or cyclodextrin, thermodynamic from solid
Experimental: Increasing amounts of the keto acids and salts thereof were added to a cell culture feed formulation (Cellvento® 4Feed, MilliporeSigma) depleted in Ile and Leu. Similarly, increasing amount of Ile and Leu were added to the same feed formulation as a control. The total concentration of this feed formulation was 125 g/L and the pH was 7.0+/−0.2. In small scale experiments, after each addition of either the amino acid or the keto acid, the feed was agitated for 10 mins and turbidity was measured. The experiments were performed at room temperature (25° C.).

CHOK1GS cell line [2] = test: Serial passaging and batch experiment in Leu/Ile depleted Cellvento 4CHO with keto acids; type: cell-based; conditions: for initial keto acid concentration detected in form of the amino acid: day 3
From the text: To confirm that this is applicable in CHO systems, keto Leu or keto Ile were used as replacement for Leu and Ile respectively in a cell culture medium (Cellvento® 4CHO). A Leu/Ile depleted version of the formulation was produced and equimolar concentrations of keto Leu vs Leu and keto Ile vs Ile were used (FIG. 15). Cell growth and viability of a CHOK1GS cell line were monitored over several weeks in serial passaging experiments to make sure that the growth is not due to residual amounts of Leu or Ile. A batch experiment with a seeding density of 0.2 million cells/mL was designed and IgG production was measured over time. The production of the amino acids was followed with time using amino acids quantification in the spent medium.

[3] = tested on: CHOK1GS suspension cell line expressing a human IgG1; test: 17-days fed-batch process with keto acid replacing amino acid in the feed; type: cell-based; conditions: for amount of NH3 produced compared to control: 17-days fed-batch
Experimental: For cell culture experiments, a CHOK1GS suspension cell line expressing a human IgG1, was used. Cells were cultivated in quadruplicate in Cellvento 4CHO medium (Merck Darmstadt, Germany) using 50 mL spin tubes with a starting culture volume of 30 mL and a seeding density of 2×10^5 cells/mL. Incubation was carried out at 37° C., 5% CO2, 80% humidity and an agitation of 320 rpm. The keto acids were added in the Feed (4Feed depleted in Ile and leu) instead of their respective amino acids. The pH of all the feeds was neutral (pH 7.0+/−0.2). The positive control contained the normal amino acids whereas the negative control contained the feed depleted in the respective amino acid and without addition of keto acid. Feeding was carried out at days 3, 5, 7, 10 and 14 at the following v/v ratios (3, 3, 6, 3 and 3%). Glucose was quantified daily and adjusted to 6 g/L using a 400 g/L glucose solution. The experiment was repeated at least 3 times.
The viable cell density (VCD) and viability were evaluated with a Vi-CELL XR (Beckman Coulter, Fullerton, Calif.). Metabolite concentrations were monitored using a Cedex Bio HT (Roche Diagnostics, Mannheim, Germany) based on spectrophotometric and turbidometric methods. Quantification of amino acids was carried out via UPLC after derivatization with the AccQ⋅TagUltra® reagent kit. Derivatization, chromatography and data analysis were carried out following the supplier recommendations (Waters, Milford, Mass.).
The productivity per cell per day was calculated daily by dividing the titer by the corrected integral VCD to take into account the dilution resulting from feeding. The overall specific productivity was determined by calculating the slope from the linear regression between titer and corrected integral VCD.

[4] = Feed stability: NH3 formed during 3 months storage (AUC of NH3 concentration); type: physicochemical; conditions: for less ammonia produced compared to control: 4° C.; for reduced ammonia level compared to control: RT
Experimental: Finally, the amount of ammonium ions formed during storage of the feed containing keto acids at 4° C. or RT was lower when compared to the feed containing the normal amino acids. To be able to evaluate the formation of the NH3 over the entire period of the stability study, the AUC of the NH3 concentration was calculated for the timeframe of 3 months to compare the conditions.

[5] = Feed stability: change in color, AUC of absorbance 300-600 nm over 90 days; type: physicochemical
Experimental: The stability of a feed containing Ile and Leu (Cellvento® 4Feed) was compared to the stability of the same feed depleted in Ile/Leu and with supplementation of either keto Leu or keto Ile. The feeds were prepared according to the standard protocol. The final pH was 7.0+/−0.2 and the feeds were stored at 4° C. or RT protected or exposed to light. The change in color of the formulations were monitored during 90 days by measuring the absorbance in the range from 300 nm to 600 nm (intervals of 5 nm). Conditions were compared by calculating the area under the curve (AUC) over time (between D0 and D90) of the baseline corrected area under the curve of the absorbance scan (300 nm-600 nm).

[6] = tested on: CHODG44 cell line expressing an IgG1; test: Fed-batch with keto Leu, CHODG44; type: cell-based
CHOK1GS cell line [7] = test: Batch experiments with higher seeding densities and different Leu/keto Leu ratios; type: cell-based
Experimental: In a similar way, batch experiments with higher cell seeding densities were performed in media containing different ratios of Leu/keto Leu to understand which ratios are preferable when starting with higher cell densities (FIG. 16). The analytic used was the same as described above.
Finally, batch experiments with higher cell densities were performed to determine whether keto Leu is readily available when starting with high seeding densities or if a minimum concentration of free leucine has to be present to support growth and productivity in these conditions. For this experiment, a CHOK1GS cell line was seeded at 0.3, 0.6 or 1.10^6 cells/mL in a medium containing 0, 25, 50, 75, or 100% of keto Leu, the rest being added in form of Leucine.

[8] = Feed stability: precipitation during storage; type: physicochemical
Experimental: In addition, when using keto Leu instead of Leu in the feed, the precipitation of the feed was delayed. To observe precipitation, the 50 mL falcon tubes were turned back to see possible sedimentation on the bottom of the tube and pictures were taken. […] A complete inhibition of precipitation was not observed at RT exposed to light but the precipitation was delayed in the keto Leu condition. Whereas precipitation was observed starting at D49 for the control condition, initial precipitation appeared at D70 for the keto Leu condition.

[9] = FB culture with other keto acids replacing their amino acid in the feed; type: cell-based
From the text: Other keto acids have been tested as replacement for their respective amino acids in FB experiments. A very similar behavior compared to Ile and Leu was observed when Val was replaced by keto Val in the feed (FIG. 17). Indeed, similar VCD and titer were observed compared to the positive control whereas the feed depleted in Val leads to a drastic decrease in the VCD, as well as a very low titer after day 7. […] Due to the structural similarity to keto Ile and keto Leu, the effect of keto Val on overall feed concentration and feed stability is similar to the other branched chain keto acids. 6× higher solubility when compared to Val was confirmed in water.
For phenylalanine (Phe) and its respective keto acid phenylpyruvate (FIG. 18), the amination reaction to build Phe in cell culture seemed to be slower than the amination reactions occurring for branched chain keto acids. […] Following that result, a condition where 2× the molar equivalent of Phe was used as a concentration of phenylpyruvate in the feed.

[10] = batch, seeding density 0.2 million cells/mL
[11] = Val replaced by keto Val in the feed
[12] = equivalent molar concentration (1×)

CSCCC(=O)C(=O)O [Alpha keto gamma methylthiobutyric acid sodium salt]
Solubility 25° C. in g/kg (corresponding keto acid) [1]: >500 g/kg

CC[C@H](C)[C@H](N)C(=O)O [Isoleucine, reference compound]
Solubility (amino acid) [1]: 32.4 g/kg | solubility at 10 min (physchem): ~105 mM (≈ 13.8 mg/mL)

CC(C)C[C@H](N)C(=O)[O-].[Na+] [Leu sodium salt, reference compound]
maximum solubilities obtained in water [1]: 86.0 g/kg

CC(C)C[C@H](N)C(=O)O [Leucine, reference compound]
maximum solubilities obtained in water [1]: 22.1 g/kg | Solubility (amino acid) [1]: 22.1 g/kg | solubility at 10 min (physchem): ~90 mM (≈ 11.8 mg/mL)

CSCC[C@H](N)C(=O)O [Methionine, reference compound]
Solubility (amino acid) [1]: 52.9 g/kg

N[C@@H](Cc1ccccc1)C(=O)O [Phenylalanine, reference compound]
Solubility (amino acid) [1]: 26.8 g/kg

CC(C)[C@H](N)C(=O)O [Valine, reference compound]
Solubility (amino acid) [1]: 58.5 g/kg

CCC(C)C(=O)C(=O)[O-].[Na+] (stereo not drawn) [keto Ile, 3-Methyl-2-oxopentanoic acid sodium salt]
IgG vs control (CHOK1GS cell line [2]; [10]): slightly impaired | growth / performance vs control (CHOK1GS cell line [2]; [10]): slightly impaired | initial keto acid concentration detected in form of the amino acid (CHOK1GS cell line [2]; spent medium): 21% | initial keto Ile concentration detected in the form of allo-Ile (CHOK1GS cell line [2]; spent medium, up to day 10): 35% | Solubility 25° C. in g/kg (corresponding keto acid) [1]: 480 g/kg | amount of NH3 produced compared to control [3]: significantly reduced | allo-Ile peak in spent medium ([3]; Ile replaced with keto Ile): increased with time | concentration of Ile in the spent medium vs positive control ([3]; Ile replaced with keto Ile): significantly lower | less ammonia produced compared to control ([4]; light exposed): 24% | less ammonia produced compared to control ([4]; light protected): 21% | reduced ammonia level compared to control ([4]; light exposed): 25% | reduced ammonia level compared to control ([4]; light protected): 28% | decrease of AUC (change in color) vs control ([5]; 4° C., light exposed): 68% | decrease of AUC (change in color) vs control ([5]; 4° C., light protected): 33% | decrease of AUC (change in color) vs control ([5]; RT, light exposed): 38% | decrease of AUC (change in color) vs control ([5]; RT, light protected): no decrease | times more soluble than the amino acid (physchem): at least 6 times | solubility at 10 min (physchem): ≥ 635 mM

CC(C)CC(=O)C(=O)[O-].[Na+] [keto Leu, 4-Methyl-2-oxopentanoic acid sodium salt]
IgG titer compared to control [6]: slightly lower | Leu concentration in spent media vs control [6]: nearly similar | VCD compared to control [6]: lower VCD | overall specific productivity [6]: slightly increased | growth / performance vs control (CHOK1GS cell line [2]; [10]): comparable | initial keto acid concentration detected in form of the amino acid (CHOK1GS cell line [2]; spent medium): 34% | maximum solubilities obtained in water [1]: 313.7 g/kg | Solubility 25° C. in g/kg (corresponding keto acid) [1]: 313.7 g/kg | keto Leu share at which highest VCD was observed (CHOK1GS cell line [7]; seeding 0.6.10^6 and 0.3.10^6 cells/mL): 50% | titer between ratios keto Leu/Leu (CHOK1GS cell line [7]; seeding at 0.3 and 1.10^6 cells/mL): no significant difference | IgG concentration between ratios keto Leu/Leu (CHOK1GS cell line [7]; seeding at 0.6.10^6 cells/mL): slight trend | keto Leu exchange at which maximum VCD was observed (CHOK1GS cell line [7]; seeding density 1.10^6 cells/mL): 100% | amount of NH3 produced compared to control [3]: significantly reduced | concentration of Leu in the spent medium vs positive control ([3]; Leu replaced with keto Leu): slightly lower | less ammonia produced compared to control ([4]; light exposed): 19% | less ammonia produced compared to control ([4]; light protected): 10% | reduced ammonia level compared to control ([4]; light exposed): 5% | reduced ammonia level compared to control ([4]; light protected): 15% | decrease of AUC (change in color) vs control ([5]; 4° C., light exposed): 8% | decrease of AUC (change in color) vs control ([5]; 4° C., light protected): 27% | decrease of AUC (change in color) vs control ([5]; RT, light exposed): 37% | decrease of AUC (change in color) vs control ([5]; RT, light protected): 31% | times more soluble than the amino acid (physchem): 2.6 times | solubility at 10 min (physchem): 240 mM | amount and color intensity of precipitate vs control ([8]; RT light exposed, days after D70): lower | precipitation ([8]; RT light protected): no precipitation

CC(C)C(=O)C(=O)[O-].[Na+] [keto Val, α-Ketoisovaleric acid sodium salt]
NH3 concentration [9, 11]: lower | VCD compared to positive control [9, 11]: similar | titer compared to positive control [9, 11]: similar | higher solubility when compared to Val ([1]; in water): 6 × | Solubility 25° C. in g/kg (corresponding keto acid) [1]: 362 g/kg

O=C([O-])C(=O)Cc1ccccc1.[Na+] [phenylpyruvate, Phenylpyruvic acid sodium salt]
Phe in the spent medium vs control ([9]; 2× the molar equivalent of Phe): very similar amount | VCD vs control ([9]; 2× the molar equivalent of Phe): restore | titer vs control ([9]; 2× the molar equivalent of Phe): restore | Phe in the supernatant compared to negative control [9, 12]: more Phe | final reduction of titer [9, 12]: 20% | VCD vs control ([9]; equivalent molar concentration (1×), after day 5): significant lower VCD | Solubility 25° C. in g/kg (corresponding keto acid) [1]: 72 g/kg
